{
  "source": "patent US11629135B2",
  "about": "(JUBILANT PRODEL LLC, priority 2017, dated 2023)",
  "data": [
    {"biological_target": "T1, PD-1/PD-L1 interaction (Homo sapiens, UniProt Q9NZQ7)", "T1 construct": "Tag1 or Tag2 (undisclosed kit tag); purchased CisBio 63ADK000CPAPEG", "T1 sequence (Q9NZQ7 19-238 limits assumed)": "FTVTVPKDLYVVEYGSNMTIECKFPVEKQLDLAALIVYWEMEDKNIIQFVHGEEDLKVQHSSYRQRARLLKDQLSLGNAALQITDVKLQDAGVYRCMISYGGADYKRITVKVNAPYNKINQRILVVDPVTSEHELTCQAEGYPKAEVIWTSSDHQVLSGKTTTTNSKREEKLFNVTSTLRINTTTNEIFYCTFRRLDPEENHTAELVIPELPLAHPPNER", "assay": "PD-1/PD-L1 Homogenous Time-Resolved Fluorescence (HTRF) binding assay", "details": "Biochemical PD1/PD-L1 inhibition", "experimental": "PD-L1 Enzyme Assay: Homogenous Time-Resolved Fluorescence (HTRF) Binding Assay\nAll binding studies were performed using PD-1/PD-L1 Binding Assay Kit from CisBio (Catalog #63ADK000CPAPEG), according to the manufacturer's protocol. The interaction between Tag1-PD-1 and […] was detected by anti-Tag1-Eu^3+ (HTRF donor) and anti-Tag2-XL665 (HTRF acceptor). When the donor and acceptor antibodies were brought to close proximity due to PD-1 and PD-L1 binding, excitation of the donor antibody triggered fluorescent resonance energy transfer (FRET) towards the acceptor antibody, which in turn emitted specifically at 665 nm. This specific signal is positively proportional to PD-1/PD-L1 interaction. The compounds blocking PD-1/PD-L1 interaction will cause a reduction in HTRF signal. The necessary reagents were mixed in the following order: 2 μl compounds (or diluents buffer), 4 μl PD-L1 protein, 4 μl PD-1 protein. After an incubation of 15 minutes, 5 μl of anti-Tag1-Eu^3+ and 5 μl of anti-Tag2-XL665 were added. The plate was sealed and incubated at RT for 1 h. The fluorescence emission was read at two different wavelengths (665 nm and 620 nm) on a BMG PheraStar® multiplate reader. Results were calculated from the 665 nm and 620 nm fluorescence signal and expressed in HTRF ratio=(665 nm/620 nm)×[…].", "units": {"IC50": "nM"}, "values": [
      {"smiles": "COc1nc(OCc2cccc(-c3cccc(OCCCN4CCC(F)(F)C4)c3C)c2C)ncc1CN1CCCC[C@H]1C(=O)O", "note": "[Compound 13, (S)-1-((2-((3′-(3-(3,3-difluoropyrrolidin-1-yl)propoxy)-2,2′-dimethyl-[1,1′-biphenyl]-3-yl)methoxy)-4-methoxypyrimidin-5-yl)methyl)piperidine-2-carboxylic acid]", "IC50": "100 to 500"},
      {"smiles": "COc1nc(OCc2cccc(-c3cccc(F)c3)c2C)ncc1CN1CCCC[C@H]1C(=O)O", "note": "[Compound 17, (S)-1-((2-((3′-fluoro-2-methyl-[1,1′-biphenyl]-3-yl)methoxy)-4-methoxypyrimidin-5-yl)methyl)piperidine-2-carboxylic acid]", "IC50": "100 to 500"},
      {"smiles": "COc1nc(OCc2cccc(-c3cccc(F)c3)c2C)ncc1CNCCNC(C)=O", "note": "[Compound 18, N-(2-(((2-((3′-fluoro-2-methyl-[1,1′-biphenyl]-3-yl)methoxy)-4-methoxypyrimidin-5-yl)methyl)amino)ethyl)acetamide]", "IC50": "100 to 500"},
      {"smiles": "CCOc1nc(OCc2cccc(-c3ccccc3)c2C)ncc1CN[C@H](C)C(=O)O", "note": "[Compound 28, ((4-ethoxy-2-((2-methyl-[1,1′-biphenyl]-3-yl)methoxy)pyrimidin-5-yl)methyl)-D-alanine]", "IC50": "100 to 500"},
      {"smiles": "CCOc1nc(OCc2cccc(-c3ccccc3)c2C)ncc1CNC1(C(=O)O)CC1", "note": "[Compound 23, 1-(((4-ethoxy-2-((2-methyl-[1,1′-biphenyl]-3-yl)methoxy)pyrimidin-5-yl)methyl)amino)cyclopropane-1-carboxylic acid]", "IC50": "100 to 500"},
      {"smiles": "CCOc1nc(OCc2cccc(-c3ccccc3)c2C)nc(OCC)c1CN1C[C@H](O)C[C@H]1C(=O)O", "note": "[Compound 39, (2S,4R)-1-((4,6-diethoxy-2-((2-methyl-[1,1′-biphenyl]-3-yl)methoxy)pyrimidin-5-yl)methyl)-4-hydroxypyrrolidine-2-carboxylic acid]", "IC50": "100 to 500"},
      {"smiles": "CCOc1nc(OCc2cccc(-c3ccccc3)c2C)nc(OCC)c1CN1CCCC[C@H]1C(=O)O", "note": "[Compound 40]", "IC50": "100 to 500"},
      {"smiles": "COc1nc(OCc2cccc(-c3ccc4c(c3)OCCO4)c2C)nc(OC)c1CN1CCCC[C@H]1C(=O)O", "note": "[Compound 55, (S)-1-((2-((3-(2,3-dihydrobenzo[b][1,4]dioxin-6-yl)-2-methylbenzyl)oxy)-4,6-dimethoxypyrimidin-5-yl)methyl)piperidine-2-carboxylic acid]", "IC50": "< 100"},
      {"smiles": "COc1nc(OCc2cccc(-c3ccccc3)c2C)ncc1CN1CCC[C@@H]2C[C@@]21C(=O)O", "note": "(racemic) [Compound 48]", "IC50": "> 500"},
      {"smiles": "COc1nc(OCc2cccc(-c3ccccc3)c2C)ncc1CN1CCN(C(C)=O)C[C@H]1C(=O)O", "note": "[Compound 49, (S)-4-acetyl-1-((4-methoxy-2-((2-methyl-[1,1′-biphenyl]-3-yl)methoxy)pyrimidin-5-yl)methyl)piperazine-2-carboxylic acid]", "IC50": "> 500"},
      {"smiles": "CCOc1nc(OCc2cccc(-c3ccccc3)c2C)nc(OCC)c1CNC(CO)(CO)CO", "note": "[Compound 41, 2-(((4,6-diethoxy-2-((2-methyl-[1,1′-biphenyl]-3-yl)methoxy)pyrimidin-5-yl)methyl)amino)-2-(hydroxymethyl)propane-1,3-diol]", "IC50": "100 to 500"},
      {"smiles": "CCOc1nc(OCc2cccc(-c3ccccc3)c2C)ncc1CN[C@@H](C)CC(=O)O", "note": "[Compound 27, (S)-3-(((4-ethoxy-2-((2-methyl-[1,1′-biphenyl]-3-yl)methoxy)pyrimidin-5-yl)methyl)amino)butanoic acid]", "IC50": "> 500"},
      {"smiles": "COc1nc(OCc2cccc(-c3ccc4c(c3)OCCO4)c2C)nc(OC)c1CNCCNC(C)=O", "note": "[Compound 56, N-(2-(((2-((3-(2,3-dihydrobenzo[b][1,4]dioxin-6-yl)-2-methylbenzyl)oxy)-4,6-dimethoxypyrimidin-5-yl)methyl)amino)ethyl)acetamide]", "IC50": "< 100"},
      {"smiles": "COc1nc(OCc2cccc(-c3ccccc3)c2C)nc(OC)c1CN1CCOCC1C(=O)O", "note": "(stereo not drawn) [Compound 38, 4-((4,6-dimethoxy-2-((2-methyl-[1,1′-biphenyl]-3-yl)methoxy)pyrimidin-5-yl)methyl)morpholine-3-carboxylic acid]", "IC50": "< 100"},
      {"smiles": "COc1nc(OCc2cccc(-c3ccc(F)cc3)c2C)ncc1CN1CCCC[C@H]1C(=O)O", "note": "[Compound 16, (S)-1-((2-((4′-fluoro-2-methyl-[1,1′-biphenyl]-3-yl)methoxy)-4-methoxypyrimidin-5-yl)methyl)piperidine-2-carboxylic acid]", "IC50": "> 500"},
      {"smiles": "Cc1c(COc2ncc(CN3CCCC[C@H]3C(=O)O)c(OCc3ccc(F)c(C#N)c3)n2)cccc1-c1ccccc1", "note": "[Compound 8, (S)-1-((4-((3-cyano-4-fluorobenzyl)oxy)-2-((2-methyl-[1,1′-biphenyl]-3-yl)methoxy)pyrimidin-5-yl)methyl)piperidine-2-carboxylic acid]", "IC50": "> 500"},
      {"smiles": "Cc1c(COc2ncc(CN3C[C@H](O)C[C@H]3C(=O)O)c(OCc3ccc(F)c(C#N)c3)n2)cccc1-c1ccccc1", "note": "[Compound 54, (2S,4R)-1-((4-((3-cyano-4-fluorobenzyl)oxy)-2-((2-methyl-[1,1′-biphenyl]-3-yl)methoxy)pyrimidin-5-yl)methyl)-4-hydroxypyrrolidine-2-carboxylic acid]", "IC50": "100 to 500"},
      {"smiles": "COc1nc(OCc2cccc(-c3ccccc3)c2C)ncc1CN1CCNC[C@H]1C(=O)O", "note": "[Compound 50, (S)-1-((4-methoxy-2-((2-methyl-[1,1′-biphenyl]-3-yl)methoxy)pyrimidin-5-yl)methyl)piperazine-2-carboxylic acid]", "IC50": "> 500"},
      {"smiles": "COc1nc(OCc2cccc(-c3ccc4c(c3)OCCO4)c2C)nc(OC)c1CN1C[C@H](O)C[C@H]1C(=O)O", "note": "[Compound 11, (2S,4R)-1-((2-((3-(2,3-dihydrobenzo[b][1,4]dioxin-6-yl)-2-methylbenzyl)oxy)-4,6-dimethoxypyrimidin-5-yl)methyl)-4-hydroxypyrrolidine-2-carboxylic acid]", "IC50": "< 100"},
      {"smiles": "COc1nc(OCc2cccc(-c3ccccc3)c2C)ncc1CN1CCCC[C@H]1C(=O)O", "note": "[Compound 7, (S)-1-((4-methoxy-2-((2-methyl-[1,1′-biphenyl]-3-yl)methoxy)pyrimidin-5-yl)methyl)piperidine-2-carboxylic acid]", "IC50": "< 100"},
      {"smiles": "Cc1nc(OCc2cccc(-c3ccccc3)c2C)ncc1CN1CCCC[C@H]1C(=O)O", "note": "[Compound 64, (S)-1-((4-methyl-2-((2-methyl-[1,1′-biphenyl]-3-yl)methoxy)pyrimidin-5-yl)methyl)piperidine-2-carboxylic acid]", "IC50": "< 100"},
      {"smiles": "COC(=O)C1COCCN1Cc1c(OC)nc(OCc2cccc(-c3ccccc3)c2C)nc1OC", "note": "(stereo not drawn) [Compound 37, Methyl 4-((4,6-dimethoxy-2-((2-methyl-[1,1′-biphenyl]-3-yl)methoxy)pyrimidin-5-yl)methyl) morpholine-3-carboxylate]", "IC50": "> 500"},
      {"smiles": "COc1ccc(-c2cccc(COc3nc(OC)c(CN4C[C@H](O)C[C@H]4C(=O)O)c(OC)n3)c2C)cc1OC", "note": "[Compound 58]", "IC50": "> 500"},
      {"smiles": "COc1nc(OCc2cccc(-c3ccccc3)c2C)nc(OC)c1CN1CC2(CC2)C[C@H]1C(=O)O", "note": "[Compound 46, (S)-5-((4,6-dimethoxy-2-((2-methyl-[1,1′-biphenyl]-3-yl)methoxy)pyrimidin-5-yl)methyl)-5-azaspiro[2.4]heptane-6-carboxylic acid]", "IC50": "< 100"},
      {"smiles": "Cc1c(COc2ncc(CN3CCCCC3C(=O)O)c(OCc3ccccc3)n2)cccc1-c1ccccc1", "note": "(stereo not drawn) [Compound 33, 1-((4-(benzyloxy)-2-((2-methyl-[1,1′-biphenyl]-3-yl)methoxy)pyrimidin-5-yl)methyl)piperidine-2-carboxylic acid]", "IC50": "> 500"},
      {"smiles": "COc1nc(OCc2cccc(-c3ccccc3)c2C)nc(OC)c1CN1C[C@H](O)C[C@H]1C(=O)O", "note": "[Compound 34, (2S,4R)-1-((4,6-dimethoxy-2-((2-methyl-[1,1′-biphenyl]-3-yl)methoxy)pyrimidin-5-yl)methyl)-4-hydroxypyrrolidine-2-carboxylic acid]", "IC50": "< 100"},
      {"smiles": "COc1nc(OCc2cccc(-c3ccccc3)c2C)nc(OC)c1CN1CCCC2(CCNC2=O)C1", "note": "(stereo not drawn) [Compound 47, 7-((4,6-dimethoxy-2-((2-methyl-[1,1′-biphenyl]-3-yl)methoxy)pyrimidin-5-yl)methyl)-2,7-diazaspiro[4.5]decan-1-one]", "IC50": "< 100"}
    ]}
  ]
}
